Assay results: article PMC5259778, “Candidate pheromone receptors of codling moth Cydia pomonella respond to pheromones and kairomones” (Scientific Reports, 2017)
Values after ≈ are worked out from the molar mass of the structure shown.

Experiments:
CpomOrco = CpomOrco (Cydia pomonella, UniProt H9A5M2); assay: Calcium imaging of HEK293T cells expressing homomeric CpomOrco; format: cell-based; settings: peak amplitudes normalized to response at 1000 μM agonist, read-out: [A]1/2 half-effective concentration of agonist, calcium response
Protocol: HEK293T cells were grown in HEK cell media [Dulbecco’s modified Eagle’s medium containing 10% fetal bovine serum (MP Biomedicals, Solon, OH, USA), 2.0 mM L-glutamine, and 100 μg/mL Penicillin/Streptomycin (Invitrogen)] at 37 °C and 5% CO2. To test transient expression of CpomORs for calcium imaging or patch-clamp recording experiments, 35-mm petri dishes containing semi-confluent HEK293T cells were transiently transfected. To transfect cells with CpomOrco, we used 1.0 μg of pcDNA5/TO/CpomOrco DNA. In order to promote expression of the OR[51], we used double aliquots for pcDNA5/TO/CpomOR DNAs (2.0 μg), combined with 1.0 μg of pcDNA5/TO/CpomOrco for co-transfections (CpomOrco + ORs). […]
(§1) Fluorescence imaging was performed using Imaging Workbench 6 software (INDEC BioSystems, Santa Clara, CA, USA). Each cell was assigned a region of interest (ROI) and changes in fluorescence intensity within each ROI were measured and expressed as the fractional change in fluorescence intensity (dF) or in some cases as dF/F0 where F0 is the basal fluorescence level before agonist application. […] Continuous traces of multiple responses were compensated for slow drift of the baseline fluorescence when necessary. […]

CpomOrco + OR complexes = assay: Calcium imaging of HEK293T cells expressing heteromeric CpomOrco + OR complexes; format: cell-based, Cydia pomonella
Protocol: HEK293T cells were grown in HEK cell media [Dulbecco’s modified Eagle’s medium containing 10% fetal bovine serum (MP Biomedicals, Solon, OH, USA), 2.0 mM L-glutamine, and 100 μg/mL Penicillin/Streptomycin (Invitrogen)] at 37 °C and 5% CO2. To test transient expression of CpomORs for calcium imaging or patch-clamp recording experiments, 35-mm petri dishes containing semi-confluent HEK293T cells were transiently transfected. To transfect cells with CpomOrco, we used 1.0 μg of pcDNA5/TO/CpomOrco DNA. In order to promote expression of the OR[51], we used double aliquots for pcDNA5/TO/CpomOR DNAs (2.0 μg), combined with 1.0 μg of pcDNA5/TO/CpomOrco for co-transfections (CpomOrco + ORs). To report expression for calcium imaging experiments, 1.0 μg of a separate plasmid DNA [pEBFP2-Nuc, a gift from Robert Campbell (Addgene plasmid # 14893[52])] carrying the coding sequence for a blue fluorescent protein (BFP) was used. In patch-clamp recordings, 1.0 μg of a separate plasmid DNA (pXOOM, Clontech) carrying the coding sequence for a green fluorescent protein (GFP) was used to report expression. In order to report candidate OR-expressing cells, expression of both fluorescent reporter genes was under the regulation of the same promoter for CpomOR genes (CMV). Transfection DNAs were dissolved in 100 μL sterile DMEM, mixed with 3.0 μL Calfectin (SignaGen, Rockville, MD, USA) following the recommended protocol. To estimate transfection efficiency, a parallel transfection was conducted using the positive control vector pcDNA5/TO/LACZ (Invitrogen) and staining with 0.1% XGal[53]. […]
as §1

[1] = ref Scifinder, 2015; Chemspider; cited from earlier work
CpomOrco + OR3 = target: T1, CpomOrco + OR3 (Cydia pomonella, UniProt H9A5M3); assay: Calcium imaging of HEK293T cells expressing CpomOrco + OR3; format: cell-based
T1 sequence (H9A5M3 1-426): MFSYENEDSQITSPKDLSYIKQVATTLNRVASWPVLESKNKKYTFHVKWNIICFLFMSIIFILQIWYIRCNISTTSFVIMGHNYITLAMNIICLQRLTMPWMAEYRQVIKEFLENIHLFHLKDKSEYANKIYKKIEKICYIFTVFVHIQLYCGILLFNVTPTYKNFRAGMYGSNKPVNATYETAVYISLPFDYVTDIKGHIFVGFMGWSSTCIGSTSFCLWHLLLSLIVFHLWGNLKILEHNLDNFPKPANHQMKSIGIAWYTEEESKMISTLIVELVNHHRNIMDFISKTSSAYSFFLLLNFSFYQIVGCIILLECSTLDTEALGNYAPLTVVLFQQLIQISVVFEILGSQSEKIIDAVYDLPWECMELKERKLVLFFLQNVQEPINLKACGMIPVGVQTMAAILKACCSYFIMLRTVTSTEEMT
T1 sequence (H9A5M2 1-473 partner): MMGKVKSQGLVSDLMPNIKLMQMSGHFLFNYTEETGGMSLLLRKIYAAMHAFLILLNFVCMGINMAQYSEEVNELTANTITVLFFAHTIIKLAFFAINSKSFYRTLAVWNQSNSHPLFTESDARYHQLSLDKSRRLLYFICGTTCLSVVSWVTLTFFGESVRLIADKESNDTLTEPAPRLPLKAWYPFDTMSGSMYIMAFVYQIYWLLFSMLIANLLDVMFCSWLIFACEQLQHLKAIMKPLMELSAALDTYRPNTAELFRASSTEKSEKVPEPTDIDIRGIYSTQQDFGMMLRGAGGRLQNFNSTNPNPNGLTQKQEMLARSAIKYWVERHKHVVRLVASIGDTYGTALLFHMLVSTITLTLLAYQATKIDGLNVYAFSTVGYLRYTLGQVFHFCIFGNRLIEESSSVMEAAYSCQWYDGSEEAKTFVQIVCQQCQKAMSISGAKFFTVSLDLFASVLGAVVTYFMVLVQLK
Protocol: HEK293T cells were grown in HEK cell media [Dulbecco’s modified Eagle’s medium containing 10% fetal bovine serum (MP Biomedicals, Solon, OH, USA), 2.0 mM L-glutamine, and 100 μg/mL Penicillin/Streptomycin (Invitrogen)] at 37 °C and 5% CO2. To test transient expression of CpomORs for calcium imaging or patch-clamp recording experiments, 35-mm petri dishes containing semi-confluent HEK293T cells were transiently transfected. To transfect cells with CpomOrco, we used 1.0 μg of pcDNA5/TO/CpomOrco DNA. In order to promote expression of the OR[51], we used double aliquots for pcDNA5/TO/CpomOR DNAs (2.0 μg), combined with 1.0 μg of pcDNA5/TO/CpomOrco for co-transfections (CpomOrco + ORs). […] In order to report candidate OR-expressing cells, expression of both fluorescent reporter genes was under the regulation of the same promoter for CpomOR genes (CMV). Transfection DNAs were dissolved in 100 μL sterile DMEM, mixed with 3.0 μL Calfectin (SignaGen, Rockville, MD, USA) following the recommended protocol.
Transfections were conducted overnight. HEK cell media was replaced with 1.0 mL fresh media to incubate cells at 37 °C for up to 6 h, at which point part of the cell culture was spread in the middle of a 35-mm plate as individual cells or small clusters. After 12 h of incubation at 37 °C and 5% CO2, cells were rinsed at the sides with 2.0 mL fresh HEK media. Cells were allowed to recover for at least 1 h prior to calcium imaging.
After incubation, the buffer was removed and cells were rinsed with 4.0 mL fresh HEK Ca^++ Ringer (mM: 140 NaCl, 2.0 CaCl2, 10 HEPES, pH 7.5), and placed on the stage of an inverted microscope (Olympus IX-71, Olympus Corp., Tokyo, Japan) equipped with a cooled CCD camera (ORCA R2, Hamamatsu, Hamamatsu City, Japan). Cells were continuously superfused with Ca^++ Ringer using two gravity fed perfusion contours. The stimulating contour washing the cells (~250 μL/min) was switched rapidly to the stimulus contour using a multi-channel rapid solution changer (RSC-160, Bio-Logic, Claix, France) under the software control of Clampex 9 (Molecular Devices, Sunnyvale, CA, USA).
Fluorescence imaging was performed using Imaging Workbench 6 software (INDEC BioSystems, Santa Clara, CA, USA). Each cell was assigned a region of interest (ROI) and changes in fluorescence intensity within each ROI were measured and expressed as the fractional change in fluorescence intensity (dF) or in some cases as dF/F0 where F0 is the basal fluorescence level before agonist application. […] Continuous traces of multiple responses were compensated for slow drift of the baseline fluorescence when necessary. All recordings were performed at room temperature (22–25 °C).
Compounds were diluted in either DMSO or ethanol (Sigma Aldrich) depending on their solubility properties. […]

CpomOR3 = assay: Single sensillum recordings, CpomOR3 expressed in Drosophila ab3A OSNs; format: cell-based, Cydia pomonella; settings: dose loaded in the stimulus cartridge
Description: To perform heterologous expression in D. melanogaster OSNs, CpomORs were amplified using primers in Table 2 and purified PCR products were cloned into the PCR8/GW/TOPO plasmid (Invitrogen) following the recommended protocol. Cassettes with inserts were then transferred from their PCR8/GW/TOPO plasmids to the destination vector (pUASg-HA.attB, constructed by E. Furger and J. Bischof, kindly provided by the Basler group, Zürich), using the Gateway LR Clonase II kit (Invitrogen). The integrity and orientation of inserts was confirmed by sequencing (Sanger sequencer, 3730xl). […]
CpomOR1 and CpomOR6a expressed in at1 OSNs, and CpomOR3 expressed in ab3A OSNs, were tested through single sensillum recordings (SSR). […] The reference electrode was manually inserted in the right eye of the fly, while the recording electrode was manoeuvred with a DC-3K micromanipulator equipped with a PM-10 piezo translator (Märzhäuser Wetzler GmbH, Wetzler, Germany) and inserted at the base of the determined sensilla. Signals coming from the olfactory sensory neurons were amplified 10 times with a probe (INR-02, Syntech, Hilversum, the Netherlands), digitally converted through an IDAC-4-USB (Syntech) interface, and visualized and analysed with the software Autospike v. […]

Work on `CCc1ccc(NC(=O)CSc2nnc(-c3cccnc3)n2CC)cc1` [VUAA1, acetamide,N-(4-ethylphenyl)-2-[[4-ethyl-5-(3-pyridinyl)-4H-1,2,4-triazol-3-yl]thio]-] yielded an EC50 (CpomOrco) of about 520 µM and an EC50 (CpomOrco + OR complexes; heteromeric complexes, peak amplitudes normalized to response at 1000 μM agonist, read-out: [A]1/2 half-effective concentration of agonist, calcium response) of about 150 µM.
For `O=Cc1ccccc1` [benzaldehyde], the LogP [1] is given as 1.452±0.242 and the “Solubility (M)” value [1] is given as 0,02 M.
With `CC(C)CN(C)c1nc(N)c(C(=O)N=C(N)N)nc1Cl` [MIA, 5-(N-methyl-N-isobutyl) amiloride] the “block of the VUAA3 activated calcium signal” value (CpomOrco + OR complexes; MIA 100 μM applied extracellularly, all heteromeric complexes, only partially reversible) was “almost completely blocked”.
In the case of `C/C1=C\CC/C(C)=C/CC(C)(C)/C=C/C1` [α-humulene], the LogP [1] is listed as 6.592±0.249 and the “Solubility (M)” value [1] is listed as 1,10E-08 M.
For `C=CCc1ccc(O)c(OC)c1` [eugenol], the LogP [1] is given as 2.403±0.236.
In the case of `CC(=O)OCC=C(C)C` [prenyl acetate], the LogP [1] is given as 2.017±0.274 and the “Solubility (M)” value [1] is given as 0,069 M.
With `CCCCC/C=C\C=C\C(=O)OC` [(E,Z)-MD, methyl (E,Z)-2,4-decadienoate] the “amplitude of the calcium response (mean of the maximum response ± SEM)” value (CpomOrco + OR3; 500 μM, n = 151) was 10.40 ± 5.91 dF, the EC50 (CpomOrco + OR3; calcium response normalized to 250 μM VUAA3) was 1080 ± 113 µM and the “minimum dose to elicit a response significantly different from the solvent” value (CpomOR3) was 10 µg.
For `CCCCC(=O)OC` [methyl valerate], the LogP [1] is listed as 1.804±0.205.
For `CCCCCCCOC(=O)CCC` [heptyl butyrate], the LogP [1] is given as 4.352±0.206.
In the case of `C/C=C/c1ccc(OC)c(OC)c1` [methyl-iso-eugenol], the LogP [1] is listed as 3.049±0.239 and the “Solubility” value [1] is listed as 3.6 mM (≈ 642 µg/mL).
In the case of `CCCCCCCCO` [1-octanol], the LogP [1] is given as 2.876±0.177.
For `O=CCc1ccccc1` [phenyl acetaldehyde], the LogP [1] is listed as 1.760±0.224 and the “Solubility (M)” value [1] is listed as 0,016 M.
For `O=C1CCCCC1` [cyclohexanone], the LogP [1] is listed as 0.821±0.251 and the “Solubility” value [1] is listed as 150 mM (≈ 14700 µg/mL).
For `C=C(C)C1CC=C(C=O)CC1` (stereo not shown) [1,8-p-menthadien-7-al (perillaldehyde), 1,8-p-menthadien-7-al], the LogP [1] is given as 3.053 ± 0.335 and the “Solubility” value [1] is given as 6.1 mM (≈ 916 µg/mL).
For `C/C=C/c1ccc2c(c1)OCO2` [isosafrol], the LogP [1] is given as 3.904±0.349 and the “Solubility (M)” value [1] is given as 5,90E-04 M.
In the case of `CCC/C=C/C=O` [(E)-2-hexenal], the LogP [1] is listed as 1.790±0.281 and the “Solubility (M)” value [1] is listed as 0,09 M.
In the case of `CC/C=C\CCO` [(Z)-3-hexenol], the “Solubility” value [1] is given as 140 mM (≈ 14000 µg/mL).
In the case of `C=CCc1ccc(OC)cc1` [4-Allylanisole], the LogP [1] is listed as 3.088±0.223.
For `CCC/C=C/C=O` [trans-2-hexenal], the LogP [1] is listed as 1.790±0.281.
For `COCc1ccccc1` [benzyl methyl ether], the LogP [1] is listed as 1.843±0.239 and the “Solubility (M)” value [1] is listed as 0,05 M.
In the case of `COC(=O)c1ccccc1` [methyl benzoate], the “Solubility (M)” value [1] is listed as 0,02 M.
In the case of `CC(C=O)Cc1ccc2c(c1)OCO2` (stereo not shown) [helional], the LogP [1] is listed as 1.982±0.343.
In the case of `CCC(C)CO` (stereo not shown) [2-methyl-1-butanol], the LogP [1] is given as 1.192±0.187.
In the case of `CC(C)=CCC/C(C)=C/CO` [geraniol], the LogP [1] is given as 2.942±0.271.
In the case of `CC(C)CCC(=O)c1ccoc1` [3-(4-methyl-1-oxopentyl)furan-], the LogP [1] is listed as 2.851 ± 0.318 and the “Solubility” value [1] is listed as 2.1 mM (≈ 349 µg/mL).
In the case of `C=CCc1ccc(OC)c(OC)c1` [methyl eugenol], the LogP [1] is listed as 2.655±0.243.
